Results taken from patent publication US20110237495A1, “FUNCTIONAL METABOLOMICS COUPLED MICROFLUIDIC CHEMOTAXIS DEVICE AND IDENTIFICATION OF NOVEL CELL MEDIATORS” (The Brigham and Women's Hospital, Inc. Corporate Sponsored …, priority 2008, published 2011).
“Also recorded” adds a separate entry of the source.

Key:
[1] = Zymosan A-induced murine peritonitis: appearance of i.v. labeled omega-3 fatty acids in peritoneal exudates; assay type: in vivo, male FVB mice; conditions: for time of maximum level in peritoneal exudate: 1 μg/mouse i.v. just before i.p. zymosan A, GC-MS; for exudate level at 48 h compared with 24 h: 1 μg/mouse i.v., p<0.05
Protocol: Male FVB mice were anesthetized with isoflurane (Hospira Inc, Lake Forest, Ill.). Both 1 μg d5-DHA (4Z,7Z,10Z,13Z,16Z,19Z-docosahexaenoic-21,21,22,22,22-d5 acid: Cayman Chemical, Ann Arbor, Mich.) and 1 μg d5-EPA (5Z,8Z,11Z,14Z,17Z-eicosapentaenoic-19,19′,20,20,20-d5 acid: Cayman Chemical, Ann Arbor, Mich.) in 100 μl of 2% ethanol (v/v) in saline or vehicle alone were administered by bolus tail vein injection. Approximately five minutes later, peritonitis was initiated with intraperitoneal administration of 1 mg of zymosan A (Sigma Aldrich, St. Louis, Mo.). At indicated time intervals, mice were euthanized with an overdose of isoflurane, and peritoneal exudates were collected by lavage with 5 ml of DPBS without either Ca^2+ or Mg^2+. Exudate cells and supernatants were separated by centrifugation (10 min, 1000 rpm, 4° C.), aliquots of supernatants were collected, and 4 volumes of cold acetone were added to precipitate proteins. Serum albumin and total protein levels were determined^32.
Briefly, FVB mice (6-8 wk) received d5-EPA and d5-DHA i.v. (1 μg/mouse of each) (FIG. 4D, top panel) just before i.p. challenge with zymosan A (1 mg/ml/mouse) (FIG. 4D, middle panel). Peritoneal exudates were collected at 0, 2, 4, 12, 24 and 48 h and taken to solid phase extraction. Eluate fractions were treated with diazomethane and taken to GC-MS. Results represent the mean±SEM from n=3, separate mice. Mass spectra of d5-EPA methyl ester and d5-DHA methyl ester. d5-EPA and d5-DHA were derivatized into methyl esters and submitted to GC-MS for analysis shown in FIGS. 4A-C.
For tracer experiments, mice were fasted overnight (˜18 h) before 500 nCi of [1-^14C]-DHA (docosahexaenoic acid 4,7,10,13,16,19-[1-^14C], American Radiolabeled Chemicals Inc, St. Louis, Mo.) was injected via the tail vein. At indicated time intervals, exudates were collected (vide supra) and the radioactivity was determined using a scintillation counter (Multi-purpose scintillation counter LS6500, Beckman Coulter, Fullerton, Calif.).
Upon collection of peritoneal exudates, 2 volumes of cold methanol and internal standard (500 ng/sample, trans-parinaric acid, Molecular Probe, Eugene, Oreg.) were added to exudates, which were stored at −20° C. for 1 hr. After centrifugation, samples were diluted and applied to C18 cartridge columns (Extract-Clean EV SPE, Alltech, Deerfield, Ill.). Lipids were extracted using hexane and methyl formate and each fraction was collected and its unesterified fatty acids converted to corresponding methyl ester using diazomethane treatment^34. The esters were suspended in hexane, and then injected in GC-MS. Electron-impact GC-MS was carried out using an HP 6890 GC system with HP5973 Mass Selective Detector (Hewlett-Packard) equipped with an HP-5MS capillary column (0.25 mm ID×30 m, 0.25 μm, Agilent Technologies Inc., Wilmington, Del.) operating at a mass range from m/z 70 to 800. The ionization voltage was 70 eV and the ion source temperature was 230° C. Chromatography was carried out using a column temperature maintained at 150° C. for 2 min and then programmed to increase 10° C./min up to 230° C., 5° C./min up to 280° C., and then maintained at 280° C. for 10 min. EPA and DHA were separated and the area beneath each chromatographic peak of their deuterium labels was obtained by integration using a Chemstation integrator Version D.02.00.275 (Agilent Technologies Inc). […] The inventors selected the ω-3 ion ((CH)3CH2(CH)2CD2CD3=113) for both d5-EPA (FIG. 4A) and d5-DHA (FIG. 4B) methyl ester and M^+(290) for methyl parinate (FIG. 4C). Identification was conducted by examining and retention times as in FIGS. 4A-C (d5-EPA-methyl ester: 11.7 min FIG. 4A, inset, methyl-parinarate; 13.1 min (FIG. 4C, and d5-DHA; 13.9 min, FIG. 4B, inset). Calibration curves were obtained for each: d5-EPA; y=0.0016x+0.0313 (r^2=0.9954, 50-500 ng/ml), d5-DHA; y=0.0015x-0.0524 (r^2=0.9809, 50-500 ng/ml). […]

[2] = system: leukocyte infiltration in lung tissues; experiment: Hind-limb ischemia-reperfusion-induced second-organ (lung) injury, lung MPO by ELISA; assay type: in vivo, mice; conditions: for percent reduction of MPO found in lungs (FIG. 11), mean±SEM: 1 μg i.v. in vehicle, ischemia-reperfusion
Protocol: To identify the effects of the resolvins and protectins on inflammation resolution, ischemia-reperfusion induced second-organ injury experiments were designed and are illustrated in FIGS. 7A-D. Mice were anesthetized by intraperitoneal injection of pentobarbital (80 mg kg^−1, Nembutal sodium solution NDC 0074-3778-04). Hind-limb ischemia was initiated using tourniquets consisting of a rubber band placed on each hind limb as in ref.^35. Mice were subjected to hind limb ischemia for 1 h, after which the tourniquets were removed to initiate reflow-reperfusion. Resolvins, related compounds and analogs were each administered at 1 μg/mouse (i.e., DHA, RvD1, RvD1 methyl ester, 17-(R/S)-methyl-RvD1 methyl ester, RvE1, or 19-p-fluorophenoxy-RvE1 methyl ester) in vehicle (5 μl ethanol in 120 μl sterile saline) or vehicle alone. They were administered intravenously to the tail vein ˜5 min before the start of the reperfusion period. At the end of this reperfusion period (2 h), the mice were euthanized with an overdose of anesthetic and the lungs were quickly harvested, frozen in liquid nitrogen, and stored at −80° C. The right lungs were homogenized from individual mice and centrifuged, and the tissue levels of myeloperoxidase (MPO) (a leukocyte marker enzyme) in the resulting supernatants, for each experimental protocol, were determined using a mouse MPO enzyme-linked immunosorbent assay (Hycult biotechnology, Cell Sciences, Uden, The Netherlands).
Briefly, as illustrated in the time-course shown in FIG. 7A, hind-limb ischemia was induced in mice by creating tourniquets using a rubber band on each hind limb. After 1 h, the tourniquets were removed and reperfusion ensued. Test compounds (1 μg of DHA, RvD1, RvE1) in vehicle were administered intravenously 5 min before the start of the reperfusion period. At the end of the reperfusion period (2 h), lungs were collected and MPO concentrations were determined by ELISA. FIGS. 7B and C are representative images from histological analysis. FIG. 9B is a photomicrograph showing a hematoxylin/eosin-stained lung from ischemia/reperfusion second organ injury (control). […] Mean±SEM (n=3-5, control; n=12).
Ischemia/reperfusion is a well-appreciated pathophysiologic mechanism of organ injury and local tissue damage that can be initiated by excessively activated PMN. This system in the mouse, models the second organ injury observed in humans following tourniquet release of vessels in surgery involving, for example, extremities^41, 42. Remote or second organ injury can also occur when blood vessels are occluded, or during certain surgical procedures that create local ischemia and remote organ injury that has many features of rapid, acute inflammation and tissue damage^35. On release of the tourniquet occlusion, reflow is initiated and activated PMN rapidly infiltrate secondary organs, causing damage^35. Here, the inventors evaluated RvD1 in a remote organ injury system, i.e., hind-limb ischemia/reperfusion, to assess whether RvD1's ability to inhibit PMN migration, in vitro, in microchambers (FIGS. 8A-C, 9-11) can be predictive of their effect to reduce PMN mediated tissue and organ damage in vivo. […] The extent of lung tissue injury is associated with PMN activation and organ infiltration^35.

[3] = system: human PMN; experiment: Microfluidic chemotaxis device: PMN chemotaxis in IL-8 gradient; assay type: cell-based; conditions: 10 nM (DHA equimolar), PMN captured on P-selectin from a drop of whole blood, n=12
Text: A new microvolume chemotaxis device was designed using polyethylene glycol (PEG) that allows testing the chemotactic function of neutrophils and their responses to these novel lipid mediators immediately after being separated from whole blood within the device. One exemplary embodiment of the device is illustrated in FIGS. 8A-C. In this embodiment, the microvolume chemotaxis device with microstructured valves was fabricated using “lab-on-chip” microfabrication technologies^36. Briefly, two silicon wafers were coated with a 50-μm-thick layer of SU8 photoresist (MicroChem, Newton, Mass.). After exposure to UV light through a mylar mask in a mask, aligner and development following manufacturer recommendations, 50 μm-tall features were produced on top of the silicon wafers. Subsequently, poly (dimethylsiloxane) (PDMS, Dow Corning, Midland, Mich.) was prepared by mixing two components in 10:1 ratio, as recommended by the manufacturer. […]
After assembly, different sections of the device were chemically modified for specific functionalities. […] The surface of the chemotaxis chamber, where neutrophils were captured and assessed for their chemotactic responses, were modified by physical adsorption of P-selectin (10 ng/mL for 30 minutes, R&D Systems, Minneapolis, Minn.) immediately before use. […]

| SMILES | time of maximum level in peritoneal exudate [1] [h] | exudate level at 48 h compared with 24 h [1] | percent reduction of MPO found in lungs (FIG. 11), mean±SEM [2] [%] | further results |
| --- | --- | --- | --- | --- |
| [2H]C([2H])([2H])C([2H])([2H])/C=C\C/C=C\C/C=C\C/C=C\C/C=C\CCCC(=O)O [d5-EPA, 5Z,8Z,11Z,14Z,17Z-eicosapentaenoic-19,19′,20,20,20-d5 acid] | 4 | significantly greater than at 24 h | – | – |
| [2H]C([2H])([2H])C([2H])([2H])/C=C\C/C=C\C/C=C\C/C=C\C/C=C\C/C=C\CCC(=O)O [d5-DHA, 4Z,7Z,10Z,13Z,16Z,19Z-docosahexaenoic-21,21,22,22,22-d5 acid] | 2 | significantly greater than at 24 h | – | – |
| CC/C=C\C[C@H](O)/C=C/C=C\C=C\C=C\[C@@H](O)[C@@H](O)C/C=C\CCC(=O)O [RvD1, 7S,8R,17S-trihydroxy-4Z,9E,11E,13Z,15E,19Z-docosahexaenoic acid] | – | – | – | reduction of lung MPO concentration (FIG. 7D), mean±SEM ([2]; 1 μg i.v. 5 min before reperfusion, lungs collected after 2 h reperfusion): 47.5±2.4; reduction of leukocyte infiltration ([2]; 1 μg/mouse, ischemia/reperfusion injury): ~50%; effect on PMN migration (chemotaxis) in IL-8 gradient [3]: essentially completely stop PMN movements; also recorded: chemotaxis immediately ceased |
| CC/C=C\CC(C)(O)/C=C/C=C\C=C\C=C\[C@@H](O)[C@@H](O)C/C=C\CCC(=O)OC (mixture of isomers) [17-(R/S)-methyl-RvD1-Me, 17-(R/S)-methyl-RvD1 carboxymethyl ester] | – | – | 29.3 ±6.4 | – |
| CC/C=C\C[C@H](O)/C=C/C=C\C=C\C=C\[C@@H](O)[C@@H](O)C/C=C\CCC(=O)OC [RvD1-Me, RvD1 carboxymethyl ester] | – | – | 22.9 ±6.8 | – |
| CC/C=C\C/C=C\C/C=C\C/C=C\C/C=C\C/C=C\CCC(=O)O [^14C-DHA, docosahexaenoic acid 4,7,10,13,16,19-[1-^14C]] | – | – | – | time at which 14C label reached maximal levels in exudate ([1]; 500 nCi i.v., mice fasted overnight, scintillation counting): 1 h; effect on leukocyte trafficking (FACS analysis of exudates) ([1]; tracer levels i.v.): did not reduce leukocyte trafficking |
